# Measurements: patent US10100051B2, “Compound of 5-hydroxyl-1,7-naphthyridine substituted by aryloxy or heteroaryloxy, preparation method thereof and pharmaceutical use thereof” (SHENYANG SUNSHINE PHARMACEUTICAL CO. LTD., priority 2015, dated 2018)
# Where “and” joins values, the source holds several entries; their conditions need not be identical. Identical values can stand only once.
# Tested on: male Balb/c mice
# Assay: Effect on increasing erythrocyte of normal mice (reticulocyte count)
# Format: in vivo
# Design: unit not given here
# Protocol: Biological Example 3: Effect of the Compounds of the Present Invention on Increasing Erythrocyte of Normal Mice
# […] male Balb/c mice were divided into 11 groups, with 8 animals for each drug group, 10 animals for blank control group. Drug group: AKB-6548, 100 mg/kg, oral administration, once a day×3; FG-4592, 25 mg/kg, oral administration, once a day×3; EPO, 100 IU/kg, Day 1 and Day 3, subcutaneous injection, as positive control groups. Each of the compounds of the present invention was orally administrated at 25 mg/kg, once a day×3. Four hours after the last administration, orbital blood of all animals were collected and treated with EDTA-K2 anticoagulant, and reticulocytes (RETIC) were counted with a blood cell automated analyzer.
# [1] = 25 mg/kg oral, once a day × 3, four hours after the last administration
# [2] = 100 IU/kg subcutaneous injection, Day 1 and Day 3, four hours after the last administration
# [3] = 100 mg/kg oral, once a day × 3, four hours after the last administration
Compound,"RETIC, Average [1]","RETIC, individual mice [1]",further results
"Cc1nc(C(=O)NCC(=O)O)c(O)c2ccc(Oc3ccccc3)cc12 [FG-4592-A, reference compound]",3.73,3.8 (2×) and 4 (2×) and 3.5 and 4.4 and 3.4 and 3.6,–
"Cc1nc(C(=O)NCC(=O)O)c(O)c2ccc(Oc3ccc4c(c3)OCCO4)nc12 [Compound 12, 2-(2-((2,3-dihydrobenzo[b][1,4]dioxo-6-yl)oxy)-5-hydroxy-8-methyl-1,7-naphthyridine-6-formamido) acetic acid]",5.24,5.4 and 5 (3×) and 6 and 5.6 (2×) and 4.3,–
"EPO: erythropoietin, glycoprotein hormone; exogenous positive control given subcutaneously",–,–,"RETIC, Average [2]: 3.73; RETIC, individual mice [2]: 5.9 and 2.5 and 2.2 (2×) and 2.6 and 4.3 and 5.1 and 5"
"Cc1nc(C(=O)NCC(=O)O)c(O)c2ccc(Oc3ccccc3)nc12 [Compound 1, 2-(5-hydroxy-8-methyl-2-phenoxy-1,7-naphthyridine-6-formamido) acetic acid]",4.73,4.4 and 5.2 and 4.8 and 5 and 5.3 and 4.1 (2×) and 4.9,–
"COc1ccc(Oc2ccc3c(O)c(C(=O)NCC(=O)O)nc(C)c3n2)cc1 [Compound 14, 2-(5-hydroxy-2-(4-methoxyphenoxy)-8-methyl-1,7-naphthyridine-6-formamido) acetic acid]",5.73,6.1 and 6.6 and 5.8 (2×) and 6.5 and 5.7 and 4.4 and 4.9,–
"O=C(O)CNC(=O)c1ncc(-c2cccc(Cl)c2)cc1O [AKB-6548-A, reference compound]",–,–,"RETIC, Average [3]: 4.75; RETIC, individual mice [3]: 6.1 and 4 (2×) and 4.2 (2×) and 4.9 and 5.3 (2×)"
